PubChem BioAssay AID2060912 (Molecular Pharmacology Branch, DTP, NCI, 2025)

System: HUVEC/MSC spheroids viability
Assay: Human HUVEC/MSC cell line growth inhibition [KRAS2];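 as to viability, T/C: percent of DMSO vehicle control luminescence so 100% = untreated viability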
Settings: for IC50: curve of first compound; for viability, T/C: stronger effect = lower value; active = viability on the fitted dose curve at most 10% of control; inactive = the rest
Procedure, shortened: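 The concentration series started at or near clinical Cmax (10 microM if not known) and fell in half-log increments, alone or in combination. Cells were stromal-only spheroids of pooled-donor HUVEC and hMSC (passage </=5), with different drug plates and layout from the tumor spheroid screens.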

CN(C)C/C=C/C(=O)Nc1cc2c(Nc3ccc(F)c(Cl)c3)ncnc2cc1O[C@H]1CCOC1 + C=CC(=O)N1CCN(c2nc(OCC3CCCN3C)nc3c2CCN(c2cccc4cccc(C)c24)C3)CC1CC#N
inactive: viability, T/C (second compound 0.00949 µM, first compound 0.000316 µM) 79.2% | viability, T/C (second compound 0.00949 µM, first compound 0.001 µM) 95.1% | viability, T/C (second compound 0.00949 µM, first compound 0.00316 µM) 88.5% | viability, T/C (second compound 0.00949 µM, first compound 0.01 µM) 82.1% | viability, T/C (second compound 0.00949 µM, first compound 0.0316 µM) 67.7% | viability, T/C (second compound 0.00949 µM, first compound 0.1 µM) 74.4% | viability, T/C (second compound 0.03 µM, first compound 0.000316 µM) 92.5% | viability, T/C (second compound 0.03 µM, first compound 0.001 µM) 92.5% | viability, T/C (second compound 0.03 µM, first compound 0.00316 µM) 90.8% | viability, T/C (second compound 0.03 µM, first compound 0.01 µM) 78.8% | viability, T/C (second compound 0.03 µM, first compound 0.0316 µM) 88.4% | viability, T/C (second compound 0.03 µM, first compound 0.1 µM) 99.2% | viability, T/C (second compound 0.0949 µM, first compound 0.000316 µM) 85.7% | viability, T/C (second compound 0.0949 µM, first compound 0.001 µM) 84.9% | viability, T/C (second compound 0.0949 µM, first compound 0.00316 µM) 82.3% | viability, T/C (second compound 0.0949 µM, first compound 0.01 µM) 79.8% | viability, T/C (second compound 0.0949 µM, first compound 0.0316 µM) 82.9% | viability, T/C (second compound 0.0949 µM, first compound 0.1 µM) 95.2% | viability, T/C (second compound 0.3 µM, first compound 0.000316 µM) 82.6% | viability, T/C (second compound 0.3 µM, first compound 0.001 µM) 84.5% | viability, T/C (second compound 0.3 µM, first compound 0.00316 µM) 76.1% | viability, T/C (second compound 0.3 µM, first compound 0.01 µM) 73.4% | viability, T/C (second compound 0.3 µM, first compound 0.0316 µM) 80.4% | viability, T/C (second compound 0.3 µM, first compound 0.1 µM) 63% | viability, T/C (second compound 0.949 µM, first compound 0.000316 µM) 63.9% | viability, T/C (second compound 0.949 µM, first compound 0.001 µM) 69.8% | viability, T/C (second compound 0.949 µM, first compound 0.00316 µM) 72.3% | viability, T/C (second compound 0.949 µM, first compound 0.01 µM) 80% | viability, T/C (second compound 0.949 µM, first compound 0.0316 µM) 72.5% | viability, T/C (second compound 0.949 µM, first compound 0.1 µM) 73% | viability, T/C (second compound 3 µM, first compound 0.000316 µM) 82.1% | viability, T/C (second compound 3 µM, first compound 0.001 µM) 90.3% | viability, T/C (second compound 3 µM, first compound 0.00316 µM) 82% | viability, T/C (second compound 3 µM, first compound 0.01 µM) 73.8% | viability, T/C (second compound 3 µM, first compound 0.0316 µM) 79% | viability, T/C (second compound 3 µM, first compound 0.1 µM) 93.7%
> 0.1 µM: IC50 (second compound 0.00949 µM) | IC50 (second compound 0.03 µM) | IC50 (second compound 0.0949 µM) | IC50 (second compound 0.3 µM) | IC50 (second compound 0.949 µM) | IC50 (second compound 3 µM)

CC1OCC2(CCN(c3cnc(Sc4ccnc(N)c4Cl)c(N)n3)CC2)C1N (centres undefined) + COc1cc2nc(C)nc(NC(C)c3cc(N)cc(C(F)(F)F)c3)c2cc1OC1CCOC1
5.19 µM: IC50 (second compound 3.16 µM)
6.22 µM: IC50 (second compound 0.1 µM)
6.36 µM: IC50 (second compound 0.0316 µM)
3.73 µM: IC50 (second compound 10 µM)
6.15 µM: IC50 (second compound 1 µM)
> 10 µM: IC50 (second compound 0.316 µM)
inactive: viability, T/C (second compound 0.0316 µM, first compound 0.0316 µM) 101% | viability, T/C (second compound 0.0316 µM, first compound 0.1 µM) 111% | viability, T/C (second compound 0.0316 µM, first compound 0.316 µM) 91.8% | viability, T/C (second compound 0.0316 µM, first compound 1 µM) 64.4% | viability, T/C (second compound 0.0316 µM, first compound 3.16 µM) 70.6% | viability, T/C (second compound 0.0316 µM, first compound 10 µM) 40.4% | viability, T/C (second compound 0.1 µM, first compound 0.0316 µM) 115% | viability, T/C (second compound 0.1 µM, first compound 0.1 µM) 90.7% | viability, T/C (second compound 0.1 µM, first compound 0.316 µM) 76.8% | viability, T/C (second compound 0.1 µM, first compound 1 µM) 72.4% | viability, T/C (second compound 0.1 µM, first compound 3.16 µM) 63% | viability, T/C (second compound 0.1 µM, first compound 10 µM) 40.8% | viability, T/C (second compound 0.316 µM, first compound 0.0316 µM) 80.7% | viability, T/C (second compound 0.316 µM, first compound 0.1 µM) 95.2% | viability, T/C (second compound 0.316 µM, first compound 0.316 µM) 88% | viability, T/C (second compound 0.316 µM, first compound 1 µM) 63.1% | viability, T/C (second compound 0.316 µM, first compound 3.16 µM) 60.2% | viability, T/C (second compound 0.316 µM, first compound 10 µM) 54.2% | viability, T/C (second compound 1 µM, first compound 0.0316 µM) 83.6% | viability, T/C (second compound 1 µM, first compound 0.1 µM) 100% | viability, T/C (second compound 1 µM, first compound 0.316 µM) 67.5% | viability, T/C (second compound 1 µM, first compound 1 µM) 72.3% | viability, T/C (second compound 1 µM, first compound 3.16 µM) 57.9% | viability, T/C (second compound 1 µM, first compound 10 µM) 44.3% | viability, T/C (second compound 3.16 µM, first compound 0.0316 µM) 82% | viability, T/C (second compound 3.16 µM, first compound 0.1 µM) 86.8% | viability, T/C (second compound 3.16 µM, first compound 0.316 µM) 86.9% | viability, T/C (second compound 3.16 µM, first compound 1 µM) 65% | viability, T/C (second compound 3.16 µM, first compound 3.16 µM) 59.2% | viability, T/C (second compound 3.16 µM, first compound 10 µM) 41.5% | viability, T/C (second compound 10 µM, first compound 0.0316 µM) 68.7% | viability, T/C (second compound 10 µM, first compound 0.1 µM) 73.8% | viability, T/C (second compound 10 µM, first compound 0.316 µM) 69.8% | viability, T/C (second compound 10 µM, first compound 1 µM) 59% | viability, T/C (second compound 10 µM, first compound 3.16 µM) 56.7% | viability, T/C (second compound 10 µM, first compound 10 µM) 27%
